SMILES strings stand for the structures.

The subject of this assay is T-24. The assay can be described thus: Antiproliferative activity against human T24 cells. The class given is functional. The conditions noted are these: read-out: ED50 (the source's name).
For the molecule `O[C@@H]1[C@@H](O)[C@H](Oc2ccc3cc(O[C@@H]4OC[C@@H](O)[C@H](O)[C@H]4O)ccc3c2)OC[C@H]1O`, the EC50 was more than 400 µM. The result for `O[C@@H]1[C@@H](O)[C@H](Oc2cc(O[C@@H]3OC[C@@H](O)[C@H](O)[C@H]3O)c3ccccc3c2)OC[C@H]1O` reads more than 400 µM; that for `O[C@@H]1[C@@H](Oc2ccc3ccc(O[C@@H]4OC[C@@H](O)[C@H](O)[C@H]4O)cc3c2)OC[C@H](O)[C@H]1O`, 450 µM; that for `O[C@@H]1[C@@H](O)[C@H](Oc2cccc3c(O[C@@H]4OC[C@@H](O)[C@H](O)[C@H]4O)cccc23)OC[C@H]1O`, 400 µM. In the case of `O[C@@H]1[C@@H](O)[C@H](Oc2ccc(O[C@@H]3OC[C@@H](O)[C@H](O)[C@H]3O)c3ccccc23)OC[C@H]1O` it was 400 µM.

For the origin of these results see ChEMBL document CHEMBL1147852, “Synthesis and biology of bis-xylosylated dihydroxynaphthalenes” (2007).
